# Measurements taken from patent publication US20240025919A1, “AZA-TETRACYCLIC OXAZEPINE COMPOUNDS AND USES THEREOF” (Genentech, Inc., priority 2022, published 2024).
# Where two headings read alike, the source gives them in different places.
# Columns and labels:
# KRAS G12D = KRAS G12D (Homo sapiens (Human), UniProt P01116, G12D); experiment: KRAS G12D LoEnz Biochemical Assay, BODIPY-GDP Exchange TR-FRET (SOS1-mediated nucleotide exchange); settings: read-out: KRas (G12D) GDP HTRF IC50
# [1] = tested on: H1975 (KRAS wild type human lung adenocarcinoma cell line); experiment: KRAS 3D-Cell Proliferation Assay, H1975 (CellTiter-Glo 3D, 7 days); assay type: cell-based; settings: H1975 3D culture, read-out: Prolif H1975 3D ATP IC50
# Method: (§1) Example 503: KRAS 3D-Cell Proliferation Assays. Cellular potencies of compounds are assessed by evaluating inhibition of proliferation in 3D cultures of homozygous mutant KRAS G12D human pancreatic cell lines (AsPC-1 and HPAC) as compared to a KRAS wild type human lung adenocarcinoma cell line (PC-9 and/or H1975). Cells are seeded into 384-well black round-bottom, ultra-low attachment assay plates in 50 uL cell growth medium (RPMI-1640 with 10% fetal bovine serum and 2 mM L-glutamine). After overnight incubation at 37° C. and 5% CO2, compounds solubilized in DMSO are added as dilution series to the wells in a total volume of 150 nL (0.3% DMSO final). The cells are incubated for 7 days at 37° C. and 5% CO2. Cell proliferation is quantitated by addition of 40 uL/well of CellTiter-GloO 3D (Promega), and the well contents are mixed 20× at high speed using liquid handling automation workstation (Bravo with 384-well head) and centrifuged at 1500 rpm for 2 minutes to eliminate bubbles. This reagent in combination with mechanical disruption releases the cellular ATP to promote activity in a luciferase-based enzyme/substrate chemiluminescent detection system. After a 30-minute incubation under ambient conditions with shaking and an additional 10 minutes without shaking, the luminescence is read on a plate reader (e.g. EnVision [PerkinElmer]). The results are normalized to percent inhibition based on the following control samples: DMSO (0% inhibition) and 1 uM staurosporine (100% inhibition). The normalized luminescence results are plotted against compound concentration, and the data are fit to a 4-parameter Hill equation to determine the IC50 values.
# KRAS WT [2] = target: T1, KRAS WT (Homo sapiens (Human), UniProt P01116); experiment: KRAS WT Biochemical Assay, BODIPY-GDP Exchange TR-FRET (Example 502; 0.06 nM KRAS WT, 15 nM GDP, 300 nM SOS1, 120-minute incubation); settings: read-out: KRas HTRF IC50
# T1 sequence (P01116-2 other isoform, or with tags, fused parts or gaps): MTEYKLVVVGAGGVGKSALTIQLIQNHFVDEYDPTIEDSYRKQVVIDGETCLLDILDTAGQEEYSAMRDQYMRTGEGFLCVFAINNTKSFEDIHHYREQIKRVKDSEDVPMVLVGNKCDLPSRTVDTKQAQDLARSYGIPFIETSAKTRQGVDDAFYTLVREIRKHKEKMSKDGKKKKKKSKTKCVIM
# Procedure, shortened: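 Biotin-tagged recombinant KRAS WT (0.06 nM) preloaded with 15 nM GDP and Tb-streptavidin, 10 min RT, then exchange started with 300 nM SOS1 plus 300 nM BODIPY-GDP in HEPES pH 7.5 buffer with MgCl2. TR-FRET 520/490 ratio read after 120 min; normalized to DMSO and full-inhibition control; IC50 from 4-parameter fit.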
# [3] = tested on: HPAC (homozygous mutant KRAS G12D human pancreatic cell line); experiment: KRAS 3D-Cell Proliferation Assay, HPAC (CellTiter-Glo 3D, 7 days); assay type: cell-based; settings: HPAC 3D culture, read-out: Prolif HPAC 3D ATP IC50
# Method: as §1
# KRAS WT [4] = target: T1, KRAS WT; experiment: KRAS WT Biochemical Assay, BODIPY-GDP Exchange TR-FRET (Example 501; 3 nM KRAS WT, 3 nM SOS1, 60-minute incubation); settings: read-out: KRas HTRF IC50
# Procedure, shortened: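 SOS1-mediated exchange assay: 3 nM biotin-KRAS WT with terbium-streptavidin, started with 3 nM SOS1 and 300 nM BODIPY-GDP, HEPES pH 7.5 with MgCl2. TR-FRET (520/490 nm) read after 60 min; normalized to DMSO and full-inhibition control, IC50 from 4-parameter Hill fit.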
# KRAS G12D, sequence (P01116-2 other isoform, or with tags, fused parts or gaps G12D): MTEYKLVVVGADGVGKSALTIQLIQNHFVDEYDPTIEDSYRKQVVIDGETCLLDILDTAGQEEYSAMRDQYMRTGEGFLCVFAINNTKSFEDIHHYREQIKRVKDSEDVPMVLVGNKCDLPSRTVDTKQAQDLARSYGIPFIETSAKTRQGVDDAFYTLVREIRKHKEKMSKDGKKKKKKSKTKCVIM
smiles,measurement,setting,value
"Cc1c(F)c(N)cc(-c2nc3c4c(nc(OC[C@@H]5COC[C@H]6CCCN65)nc4c2F)N2C[C@H]4CC[C@H](N4)[C@H]2[C@H](C)O3)c1C(F)(F)F (single isomer, unassigned) [121 (isomer 2)]",IC50,KRAS G12D,0.27 nM
same,IC50,"[1]; Homo sapiens, NCI-H1975, 168 h",533 nM
same,IC50,KRAS WT [2],49.3 nM
same,IC50,"[3]; Homo sapiens, HPAC, 168 h",17.5 nM
"Cc1c(F)c(N)cc(-c2nc3c4c(nc(OC[C@@]56CCC[C@@H]5N(C)CCC6)nc4c2F)N2C[C@H]4CC[C@H](N4)[C@H]2[C@H](C)O3)c1C(F)(F)F (single isomer, unassigned) [126 (isomer 2)]",IC50,KRAS G12D,0.09 nM
same,IC50,"[1]; Homo sapiens, NCI-H1975, 168 h",1770 nM
same,IC50,KRAS WT [2],8.08 nM
same,IC50,"[3]; Homo sapiens, HPAC, 168 h",5.15 nM
"Cc1c(F)c(N)cc(-c2nc3c4c(nc(OC[C@@]56CCC[C@H]5N(C)CCC6)nc4c2F)N2C[C@H]4CC[C@H](N4)[C@H]2[C@H](C)O3)c1C(F)(F)F (single isomer, unassigned) [126 (isomer 3)]",IC50,KRAS G12D,0.09 nM
same,IC50,"[1]; Homo sapiens, NCI-H1975, 168 h",1430 nM
same,IC50,KRAS WT [2],6.31 nM
same,IC50,"[3]; Homo sapiens, HPAC, 168 h",3.28 nM
"Cc1c(F)c(N)cc(-c2nc3c4c(nc(OC[C@]56CCC[C@H]5N(C)CCC6)nc4c2F)N2C[C@H]4CC[C@H](N4)[C@H]2[C@H](C)O3)c1C(F)(F)F (single isomer, unassigned) [126 (isomer 4)]",IC50,KRAS G12D,0.37 nM
same,IC50,"[1]; Homo sapiens, NCI-H1975, 168 h",2250 nM
same,IC50,KRAS WT [2],90.3 nM
same,IC50,"[3]; Homo sapiens, HPAC, 168 h",24.9 nM
"Cc1c(F)c(N)cc(-c2nc3c4c(nc(OC[C@@]56CCCN5[C@@H](C(F)F)CC6)nc4c2F)N2C[C@H]4CC[C@H](N4)[C@H]2[C@H](C)O3)c1C(F)(F)F (single isomer, unassigned) [130 (isomer 1)]",IC50,KRAS G12D,2.26 nM
same,IC50,"[1]; Homo sapiens, NCI-H1975, 168 h",2830 nM
same,IC50,KRAS WT [2],460 nM
same,IC50,[3],44.7 nM
"Cc1c(F)c(N)cc(-c2nc3c4c(nc(OC[C@@]56CCCN5[C@@H](C(F)F)CC6)nc4c2F)N2C[C@H]4CC[C@H](N4)[C@H]2[C@H](C)O3)c1C(F)(F)F (single isomer, unassigned) [130 (isomer 2)]",IC50,KRAS G12D,0.92 nM
same,IC50,[1],2900 nM
same,IC50,KRAS WT [2],174 nM
same,IC50,[3],15.8 nM
"Cc1c(F)c(N)cc(-c2nc3c4c(nc(OC[C@H]5CC[C@@H]6CN(C)C(=O)CN56)nc4c2F)N2C[C@H]4CC[C@H](N4)[C@H]2[C@H](C)O3)c1C(F)(F)F (single isomer, unassigned) [131 (isomer 1)]",IC50,KRAS G12D,13.9 nM
same,IC50,[1],20000 nM
same,IC50,KRAS WT [2],2530 nM
same,IC50,[3],1430 nM
"Cc1c(F)c(N)cc(-c2nc3c4c(nc(OC[C@H]5CC[C@@H]6CN(C)C(=O)CN56)nc4c2F)N2C[C@H]4CC[C@H](N4)[C@H]2[C@H](C)O3)c1C(F)(F)F (single isomer, unassigned) [131 (isomer 2)]",IC50,KRAS G12D,1.31 nM
same,IC50,[1],20000 nM
same,IC50,KRAS WT [2],293 nM
same,IC50,[3],342 nM
"Cc1c(F)c(N)cc(-c2nc3c4c(nc(OC[C@H]5CC[C@@H]6CN(C)C(=O)CN56)nc4c2F)N2C[C@H]4CC[C@H](N4)[C@H]2[C@H](C)O3)c1C(F)(F)F (single isomer, unassigned) [131 (isomer 3)]",IC50,KRAS G12D,2.07 nM
same,IC50,[1],8850 nM
same,IC50,KRAS WT [2],249 nM
same,IC50,[3],77.4 nM
"Cc1c(F)c(N)cc(-c2nc3c4c(nc(OC[C@@H]5CCC6C[C@@H](C(=O)N(C)C)CCN65)nc4c2F)N2C[C@H]4CC[C@H](N4)[C@H]2[C@H](C)O3)c1C(F)(F)F (single isomer, unassigned) [133 (isomer 2)]",IC50,KRAS G12D,0.15 nM
same,IC50,"[1]; Homo sapiens, NCI-H1975, 168 h",1600 nM
same,IC50,KRAS WT [2],14.4 nM
same,IC50,"[3]; Homo sapiens, HPAC, 168 h",22.4 nM
"Cc1cc(N)c(F)c(-c2nc3c4c(ncnc4c2Cl)N2C[C@H]4CC[C@H](N4)[C@H]2[C@H](C)O3)c1C(F)(F)F (single isomer, unassigned) [Compound 95]",IC50,[1],6700 nM
same,IC50,KRAS WT [2],3570 nM
same,IC50,[3],247 nM
"Cc1cc(N)c(Cl)c(-c2nc3c4c(nc(OC[C@@]56CCCN5C[C@H](F)C6)nc4c2Cl)N2C[C@H]4CC[C@H](N4)[C@H]2[C@H](C)O3)c1C(F)(F)F (single isomer, unassigned) [Compound 240 (atrop. 2)]",IC50,KRAS G12D,0.14 nM
same,IC50,[1],1060 nM
same,IC50,[3],1.88 nM
same,IC50,KRAS WT [4],15.1 nM
